Assay results taken from US8158628B2, “Sulfonylated 1,2,3,4-tetrahydropyrrolo[1,2-a]pyrazine compounds and their use as pharmaceuticals” (Gruenenthal GmbH, priority 2009, dated 2012).

Assays:
[1] = target: T1, B1R of the rat (Rattus norvegicus, UniProt P97583); experiment: FLIPR Ca2+ functional assay, B1R antagonism, rat B1R in CHO K1 cells; type: cell-based; conditions: test substance 10 μM; rB1R CHO K1 cells; agonist Des-Arg9 bradykinin at EC80; % of maximum achievable inhibition
T1 construct: expressed in transfected cells; host or cells: CHO K1 cells (Chinese hamster ovary), stably transfected
T1 sequence (P97583 1-337): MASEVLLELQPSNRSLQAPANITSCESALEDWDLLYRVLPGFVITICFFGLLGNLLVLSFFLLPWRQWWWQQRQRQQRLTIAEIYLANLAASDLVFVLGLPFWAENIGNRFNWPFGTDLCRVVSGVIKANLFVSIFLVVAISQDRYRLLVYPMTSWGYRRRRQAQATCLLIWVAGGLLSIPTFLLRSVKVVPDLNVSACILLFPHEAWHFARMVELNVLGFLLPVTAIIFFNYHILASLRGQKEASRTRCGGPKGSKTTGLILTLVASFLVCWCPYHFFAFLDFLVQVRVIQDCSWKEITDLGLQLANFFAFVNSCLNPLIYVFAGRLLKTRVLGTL
How it was run: (§1)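 Stably transfected CHO K1 cells loaded with Fluo-4; Ca2+ fluorescence read on FLIPR (ex 488/em 540 nm). Compound preincubated 10-20 min, then agonist at EC80: Lys-Des-Arg9 bradykinin (human) or Des-Arg9 bradykinin (rat). % inhibition vs maximal inhibition; IC50 from concentration series, n=2-3, N>=2.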

[2] = target: T2, human B1R (Homo sapiens, UniProt P46663); experiment: FLIPR Ca2+ functional assay, B1R antagonism, human B1R in CHO K1 cells; type: cell-based; conditions: test substance 10 μM; hB1R CHO K1 cells; agonist Lys-Des-Arg9 bradykinin at EC80; % of maximum achievable inhibition
T2 construct: expressed in transfected cells; host or cells: CHO K1 cells (Chinese hamster ovary), stably transfected
T2 sequence (P46663 1-353): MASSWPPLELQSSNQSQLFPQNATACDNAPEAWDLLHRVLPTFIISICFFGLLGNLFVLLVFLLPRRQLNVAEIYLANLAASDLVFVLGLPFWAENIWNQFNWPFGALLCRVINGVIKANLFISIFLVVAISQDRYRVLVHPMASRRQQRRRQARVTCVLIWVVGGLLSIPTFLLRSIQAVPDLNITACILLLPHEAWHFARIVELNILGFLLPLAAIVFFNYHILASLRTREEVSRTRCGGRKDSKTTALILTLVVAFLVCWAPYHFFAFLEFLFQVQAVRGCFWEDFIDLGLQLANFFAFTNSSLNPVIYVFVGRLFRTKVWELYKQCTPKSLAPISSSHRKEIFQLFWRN
How it was run: as §1

inhibition at 10 µM [1]	inhibition at 10 µM [2]	Compound
102%	99.9%	COc1ccc2cc(S(=O)(=O)N3CCn4cccc4C3CC(=O)NC3CCc4cc(CN(C)C)ccc4C3)ccc2c1 (centres unmarked) [Example 96, N-[6-(Dimethylaminomethyl)-1,2,3,4-tetrahydro-naphthalen-2-yl]-2-[2-[(6-methoxy-naphthalen-2-yl)sulfonyl]-1,2,3,4-tetrahydro-pyrrolo[1,2-a]pyrazin-1-yl]-acetamide]
99.7%	99.9%	COc1ccc2cc(S(=O)(=O)N3CCn4cccc4C3CC(=O)NC3CCCc4cc(CN5CCCC5)ccc43)ccc2c1 (centres unmarked) [Example 98, 2-[2-[(6-Methoxy-naphthalen-2-yl)sulfonyl]-1,2,3,4-tetrahydro-pyrrolo[1,2-a]pyrazin-1-yl]-N-[6-(pyrrolidin-1-yl-methyl)-1,2,3,4-tetrahydro-naphthalen-1-yl]-acetamide]
101%	99.9%	Cc1ccc(S(=O)(=O)N2CCn3cccc3C2CC(=O)NC2CCCc3cc(CN(C)C)ccc32)cc1Cl (centres unmarked) [Example 102, 2-[2-[(3-Chloro-4-methyl-phenyl)sulfonyl]-1,2,3,4-tetrahydro-pyrrolo[1,2-a]pyrazin-1-yl]-N-[6-(dimethylaminomethyl)-1,2,3,4-tetrahydro-naphthalen-1-yl]-acetamide]
103%	99.9%	COc1ccc2cc(S(=O)(=O)N3CCn4cccc4C3CC(=O)NC3CCCc4cc(CN(C)C(C)(C)C)ccc43)ccc2c1 (centres unmarked) [Example 104, N-[6-[(tert-Butyl-methyl-amino)-methyl]-1,2,3,4-tetrahydro-naphthalen-1-yl]-2-[2-[(6-methoxy-naphthalen-2-yl)sulfonyl]-1,2,3,4-tetrahydro-pyrrolo[1,2-a]pyrazin-1-yl]-acetamide]
101%	100%	COc1ccc2cc(S(=O)(=O)N3CCn4cccc4C3CC(=O)NC3CCCc4cc(CN(C)C)ccc43)ccc2c1 (centres unmarked) [Example 106, N-[6-(Dimethylaminomethyl)-1,2,3,4-tetrahydro-naphthalen-1-yl]-2-[2-[(6-methoxy-naphthalen-2-yl)sulfonyl]-1,2,3,4-tetrahydro-pyrrolo[1,2-a]pyrazin-1-yl]-acetamide]
98.4%	99.3%	Cc1ccc(S(=O)(=O)N2CCn3cccc3C2CC(=O)NC2CCCc3cc(CN(C)C)ccc32)cc1 (centres unmarked) [Example 107, N-[6-(Dimethylaminomethyl)-1,2,3,4-tetrahydro-naphthalen-1-yl]-2-[2-(p-tolylsulfonyl)-1,2,3,4-tetrahydro-pyrrolo[1,2-a]pyrazin-1-yl]-acetamide]
103%	100%	Cc1ccc(S(=O)(=O)N2CCn3cccc3C2CC(=O)NC2CCCc3cc(CNCc4ccccc4)ccc32)cc1Cl (centres unmarked) [Example 111, N-[6-[(Benzylamino)-methyl]-1,2,3,4-tetrahydro-naphthalen-1-yl]-2-[2-[(3-chloro-4-methyl-phenyl)sulfonyl]-1,2,3,4-tetrahydro-pyrrolo[1,2-a]pyrazin-1-yl]-acetamide]
102%	99.8%	O=C(CC1c2cccn2CCN1S(=O)(=O)c1cccc(C(F)(F)F)c1)NC1CCCc2cc(CNCc3ccccc3)ccc21 (centres unmarked) [Example 112, N-[6-[(Benzylamino)-methyl]-1,2,3,4-tetrahydro-naphthalen-1-yl]-2-[2-[[3-(trifluoromethyl)phenyl]sulfonyl]-1,2,3,4-tetrahydro-pyrrolo[1,2-a]pyrazin-1-yl]-acetamide]
97.1%	99.8%	CN(Cc1ccc2c(c1)CCCC2NC(=O)CC1c2cccn2CCN1S(=O)(=O)c1cccc(C(F)(F)F)c1)C(C)(C)C (centres unmarked) [Example 113, N-[6-[(tert-Butyl-methyl-amino)-methyl]-1,2,3,4-tetrahydro-naphthalen-1-yl]-2-[2-[[3-(trifluoromethyl)phenyl]sulfonyl]-1,2,3,4-tetrahydro-pyrrolo[1,2-a]pyrazin-1-yl]-acetamide]
99.6%	100%	COc1ccc2cc(S(=O)(=O)N3CCn4cccc4C3CC(=O)NC3CCCc4cc(CNC(C)(C)C)ccc43)ccc2c1 (centres unmarked) [Example 114, N-[6-[(tert-Butylamino)-methyl]-1,2,3,4-tetrahydro-naphthalen-1-yl]-2-[2-[(6-methoxy-naphthalen-2-yl)sulfonyl]-1,2,3,4-tetrahydro-pyrrolo[1,2-a]pyrazin-1-yl]-acetamide]

Second part, the compound before the results:

Compound	inhibition at 10 µM [1]	inhibition at 10 µM [2]
COc1ccc2cc(S(=O)(=O)N3CCn4cccc4C3CC(=O)NC3CCc4cc(CN(C)C(C)(C)C)ccc4C3)ccc2c1 (centres unmarked) [Example 97, N-[6-[(tert-Butyl-methyl-amino)-methyl]-1,2,3,4-tetrahydro-naphthalen-2-yl]-2-[2-[(6-methoxy-naphthalen-2-yl)sulfonyl]-1,2,3,4-tetrahydro-pyrrolo[1,2-a]pyrazin-1-yl]-acetamide]	102%	99.8%
COc1ccc2cc(S(=O)(=O)N3CCn4cccc4C3CC(=O)NC3CCc4cc(CN5CCN(C)CC5)ccc4C3)ccc2c1 (centres unmarked) [Example 99, 2-[2-[(6-Methoxy-naphthalen-2-yl)sulfonyl]-1,2,3,4-tetrahydro-pyrrolo[1,2-a]pyrazin-1-yl]-N-[6-[(4-methyl-piperazin-1-yl)-methyl]-1,2,3,4-tetrahydro-naphthalen-2-yl]-acetamide]	101%	99.8%
COc1ccc2cc(S(=O)(=O)N3CCn4cccc4C3CC(=O)NC3CCCc4cc(CNCc5ccccc5)ccc43)ccc2c1 (centres unmarked) [Example 100, N-[6-[(Benzylamino)-methyl]-1,2,3,4-tetrahydro-naphthalen-1-yl]-2-[2-[(6-methoxy-naphthalen-2-yl)sulfonyl]-1,2,3,4-tetrahydro-pyrrolo[1,2-a]pyrazin-1-yl]-acetamide]	103%	99.8%
COc1ccc2cc(S(=O)(=O)N3CCn4cccc4C3CC(=O)NC3CCc4cc(CNCc5ccccc5)ccc4C3)ccc2c1 (centres unmarked) [Example 101, N-[6-[(Benzylamino)-methyl]-1,2,3,4-tetrahydro-naphthalen-2-yl]-2-[2-[(6-methoxy-naphthalen-2-yl)sulfonyl]-1,2,3,4-tetrahydro-pyrrolo[1,2-a]pyrazin-1-yl]-acetamide]	103%	99.9%
COc1ccc2cc(S(=O)(=O)N3CCn4cccc4C3CC(=O)NC3CCc4cc(CN5C6CCCC5CC6)ccc4C3)ccc2c1 (centres unmarked) [Example 103, N-[6-(8-Azabicyclo[3.2.1]octan-8-yl-methyl)-1,2,3,4-tetrahydro-naphthalen-2-yl]-2-[2-[(6-methoxy-naphthalen-2-yl)sulfonyl]-1,2,3,4-tetrahydro-pyrrolo[1,2-a]pyrazin-1-yl]-acetamide]	102%	100%
COc1ccc2cc(S(=O)(=O)N3CCn4cccc4C3CC(=O)NC3CCc4cc(CN5CCCc6ccccc65)ccc4C3)ccc2c1 (centres unmarked) [Example 105, 2-[2-[(6-Methoxy-naphthalen-2-yl)sulfonyl]-1,2,3,4-tetrahydro-pyrrolo[1,2-a]pyrazin-1-yl]-N-[6-(1,2,3,4-tetrahydro-quinolin-1-yl-methyl)-1,2,3,4-tetrahydro-naphthalen-2-yl]-acetamide]	103%	99.8%
Cc1ccc(S(=O)(=O)N2CCn3cccc3C2CC(=O)NC2CCCc3cc(CN4C5CCCC4CC5)ccc32)cc1 (centres unmarked) [Example 108, N-[6-(8-Azabicyclo[3.2.1]octan-8-yl-methyl)-1,2,3,4-tetrahydro-naphthalen-1-yl]-2-[2-(p-tolylsulfonyl)-1,2,3,4-tetrahydro-pyrrolo[1,2-a]pyrazin-1-yl]-acetamide]	101%	99.9%
O=C(CC1c2cccn2CCN1S(=O)(=O)c1cccc(C(F)(F)F)c1)NC1CCCc2cc(CN3C4CCCC3CC4)ccc21 (centres unmarked) [Example 109, N-[6-(8-Azabicyclo[3.2.1]octan-8-yl-methyl)-1,2,3,4-tetrahydro-naphthalen-1-yl]-2-[2-[[3-(trifluoromethyl)phenyl]sulfonyl]-1,2,3,4-tetrahydro-pyrrolo[1,2-a]pyrazin-1-yl]-acetamide]	99.8%	99.8%
Cc1ccc(S(=O)(=O)N2CCn3cccc3C2CC(=O)NC2CCCc3cc(CN4C5CCCC4CC5)ccc32)cc1Cl (centres unmarked) [Example 110, N-[6-(8-Azabicyclo[3.2.1]octan-8-yl-methyl)-1,2,3,4-tetrahydro-naphthalen-1-yl]-2-[2-[(3-chloro-4-methyl-phenyl)sulfonyl]-1,2,3,4-tetrahydro-pyrrolo[1,2-a]pyrazin-1-yl]-acetamide]	98.8%	99.9%
